Source: PubChem BioAssay (NCI)
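The compound was tested at five concentrations on cells cultured in 96-well plates, with a 48-hour exposure period. GI50: concentration for 50% inhibition of growth. TGI is the concentration that stops growth completely.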

Legend:
Assay in all cases: NCI-60 cell line screen, 48 h
[1] = test system: MALME-3M melanoma
[2] = test system: COLO 205 colon
[3] = test system: HL-60(TB) leukemia
[4] = test system: SR leukemia
[5] = test system: RPMI-8226 leukemia
[6] = test system: MCF7 breast
[7] = test system: MDA-MB-435
[8] = test system: NCI-H23 lung
[9] = test system: UO-31 renal
[10] = test system: SN12C renal
[11] = test system: LOX IMVI melanoma
[12] = test system: SK-OV-3 ovarian
[13] = test system: SNB-19 CNS
[14] = test system: SF-539 CNS
[15] = test system: T-47D breast
[16] = test system: HCT-15 colon
[17] = test system: HOP-62 NSCLC
[18] = test system: 786-0 renal
[19] = test system: SF-268 CNS
[20] = test system: MDA-MB-468 breast
[21] = test system: HCT-116 colon
[22] = test system: SW-620 colon
[23] = test system: HS 578T breast
[24] = test system: U251 CNS
[25] = test system: SK-MEL-2 melanoma
[26] = test system: NCI-H226 lung
[27] = test system: UACC-257 melanoma
[28] = test system: SF-295 CNS
[29] = test system: NCI-H522 lung
[30] = test system: OVCAR-3 ovarian

Fc1ccccc1CNc1nc(SCCN2CCOCC2)nc2c1cnn2CC(Cl)c1ccc(Br)cc1 (centres undefined)
TGI [1]: 6.89 µM
GI50 [2]: 2.8 µM
TGI [2]: 8.12 µM
GI50 [3]: 4.1 µM
TGI [3]: > 100 µM
GI50 [4]: 4.8 µM
TGI [4]: > 100 µM
GI50 [5]: 2.67 µM
TGI [5]: 8.25 µM
GI50 [6]: 3.58 µM
TGI [6]: > 100 µM
GI50 [7]: 4.98 µM
TGI [7]: > 100 µM
GI50 [8]: 7.76 µM
TGI [8]: > 100 µM
GI50 [9]: 3.13 µM
TGI [9]: > 100 µM
GI50 [10]: 5.93 µM
TGI [10]: > 100 µM
GI50 [11]: 2.6 µM
TGI [11]: 7.91 µM
GI50 [12]: > 100 µM
TGI [12]: > 100 µM
GI50 [13]: 7.08 µM
TGI [13]: > 100 µM
GI50 [14]: 2.29 µM
TGI [14]: 6.94 µM
GI50 [15]: 2.87 µM
TGI [15]: > 100 µM
GI50 [16]: 1.69 µM
TGI [16]: 3.95 µM
GI50 [17]: 7.35 µM
TGI [17]: > 100 µM
GI50 [18]: 3.31 µM
TGI [18]: 30.6 µM
GI50 [19]: 6.08 µM
TGI [19]: > 100 µM
GI50 [20]: 2.26 µM
TGI [20]: 7 µM
GI50 [21]: 3.67 µM
TGI [21]: > 100 µM
GI50 [22]: 2.05 µM
TGI [22]: 5.39 µM
GI50 [23]: 3.6 µM
TGI [23]: > 100 µM
GI50 [24]: 5.93 µM
TGI [24]: > 100 µM
GI50 [25]: 2.9 µM
TGI [25]: 11.7 µM
GI50 [26]: 3.52 µM
TGI [26]: > 100 µM
GI50 [27]: 3.38 µM
TGI [27]: 79.1 µM
GI50 [28]: 3.04 µM
TGI [28]: > 100 µM
GI50 [29]: 5.16 µM
TGI [29]: > 100 µM
GI50 [30]: 37.4 µM
TGI [30]: > 100 µM
